Data from patent US7404948B2, “Peptidic conjugates for alopecia prevention and treatment” (Institut Europeen de Biologie Cellulaire, priority 2003, dated 2008).
Non-standard residues stand in square brackets, D forms with d. hPhe = N[C@@H](CCc1ccccc1)C(=O)O

Tested on: anagen-phase mouse vibrissae hair follicles
Experiment: Growth of mouse vibrissae in vitro (hair follicle culture, Philpott technique)
Format: cell-based
Parameters: unit not given here
Conditions: peptide 10^−7 M, A is acetic acid
Excerpt: The Effects of Various Peptides on the Growth of Mouse Vibrissae In Vitro
The growth of the hair shaft of these hair follicles was followed for several days (Day 0 to Day 4). The results are reported in the table below for peptides 1- and 2-described above, for which A is acetic acid.

Row | Substance | growth of the hair shaft (Day 0) | growth of the hair shaft (Day 1) | growth of the hair shaft (Day 2) | growth of the hair shaft (Day 3) | growth of the hair shaft (Day 4)
1 | A-Arg-Lys-Asp-Val-DHomoPhe-NH2 [Peptide 1-] | 0.00 | 0.90 | 1.38 | 1.86 | 1.87
2 | Ac-Arg-Lys-Asp-Val-HomoPhe-NH2 (Ac-RKDV[hPhe]-NH2; also: acetate salt) [Peptide 2-] | 0.00 | 0.83 | 1.46 | 1.62 | 1.62
